What was measured:
[1] = tested on: HTLV-1; assay: Measurement of amount of virus (HTLV-1 P19 ELISA), HUT102; assay type: cell-based, human T-cell leukemia virus type 1; settings: 100 μM, Day 0, 2, 4, 7, compared among six NRTIs
Method: (§1) HTLV-1-producing cell lines, MT2 (transformant with HTLV-1, JCRB cell No: JCRB1210) and HUT102 (ATL-derived cell line, ATCC No: TIB-162), were used.
Each nucleoside analogue reverse transcriptase inhibitor was added to the medium for cells at a final concentration of 100 μM. Cells were seeded on a 96-well plate at a concentration of 1×10^4 cells/100 μL/well and cultured for 0 hour (Day 0), 48 hours (2 days), 96 hours (4 days) or 168 hours (7 days). At each time point, the medium was collected. The amount of virus contained in the medium collected at each time point (pg/mL) was measured by HTLV-1 P19 ELISA kit (manufactured by Zeptometrix).

[2] = tested on: ATL cell line, ED40515 (−); assay: Cell-cycle analysis by flow cytometry (PI), ED40515 (−); assay type: cell-based; settings: 10 μM or 100 μM, 24 hours
Method: To an ATL cell line, ED40515 (−), or a non-ATL cell line, Jurkat, DMSO (solvent control), adriamycin (ADR, positive control) or abacavir (10 μM or 100 μM) was added.

[3] = tested on: non-ATL cell line, Jurkat; assay: PARP inhibitor combination, cellular proliferation (MTS), Jurkat; assay type: cell-based, human; settings: abacavir 10, 50 or 100 μM, 48 hours
Method: To an ATL cell line, ED40515 (−), or a non-ATL cell line, Jurkat, abacavir was added at a concentration of 0 μM (DMSO, was added instead of abacavir), 10 μM, 50 μM or 100 μM, and further a PARP inhibitor, olaparib, was added at a concentration of 0 μM (DMSO was added instead of olaparib), 1 μM, 10 μM, 100 μM or 1000 μM. The cells were cultured for 48 hours. MTS assay was performed using a reagent for cellular proliferation test, Aqueous One Solution Cell Proliferation (trade name, manufactured by Promega), in the same manner as in Example 1. The cellular proliferation was represented by a ratio relative to that of the control (solvent control) on Day 0 that was regarded as 1.

[4] = tested on: DT40-derived mutants each lacking a DNA repair enzyme; assay: Cellular proliferation of DT40-derived mutants (CellTiter-Glo ATP method); assay type: cell-based, chicken; settings: 25 μM, 48 hours
From the text: This example used wild-type DT40, which is a chicken B cell-derived cell line, and DT40-devired mutants each lacking a DNA repair enzyme. Those cell lines are available from the laboratory of Radiation Genetics, Graduate School of Medicine and Faculty of Medicine Kyoto University (see, Literatures: (1) Mol Cell Biol. 2001 April; 21 (8): 2858-66. (2) PLoS Genet. 2011 July; 7 (7): e1002148. (3) Mol Cell Biol. 2008 October; 28 (19): 6113-22. (4) J Biol Chem. 2012 Apr. 13; 287 (16): 12848-57.).
Abacavir was added to the medium of each cell line at a final concentration of 25 μM. The cells were seeded on a 96-well plate at a concentration of 1×10^4 cells/100 μL/well and cultured for 48 hours. After the culture, cellular proliferation was determined by CellTiter-Glo Luminescent Cell Viability Assay (trade name, manufactured by Promega) in accordance with the ATP method.
Specifically, the value on the vertical axis is −1 when the proliferation rate compared to the wild-type is 50%, and −2 when the proliferation rate compared to the wild-type is 25%.

[5] = tested on: Jurkat (non-HTLV-1-infected cell line); assay: Cellular proliferation (MTS assay), Jurkat; assay type: cell-based, human; settings: 100 μM
Method: (§2) Each nucleoside analogue reverse transcriptase inhibitor was added to the medium for cells at a final concentration of 100 μM. Cells were seeded on a 96-well plate at a concentration of 1×10^4 cells/100 μL/well and cultured for 4 hours (Day 0), 48 hours (Day 2) or 96 hours (Day 4). A medium added DMSO (solvent control) alone was used as a control. Cellular proliferation was examined by MTS assay. Specifically, after the cells were cultured for a predetermined time, a reagent for cellular proliferation test, Aqueous One Solution Cell Proliferation (trade name, manufactured by Promega), was added to the cells. Four hours later, absorbance at 490 nm was measured. The cellular proliferation was represented by a ratio relative to that of the control (solvent control) on Day 0 that was regarded as 1.
This example used non-HTLV-1-infected cell lines: Jurkat (cell line derived from human T-cell leukemia, ATCC No: TIB-152), Kit225 (cell line derived from chronic T-cell leukemia, established in the laboratory of the inventors, Blood. 1987 October; 70 (4): 1069-72.), H9 (cell line derived from cutaneous T-cell lymphoma, ATCC No: HTB-176) and SUDHL6 (cell line derived from diffuse B cell lymphoma).
The six types of nucleoside analogue reverse transcriptase inhibitors as used in Example 1 were used and cellular proliferation was examined in the same manner as in Example 1.

[6] = tested on: HTLV-1; settings: Non Patent Literature 5; cited from earlier work
[7] = tested on: HTLV-1-producing cell line, HUT102 (derived from ATL); assay: Cellular proliferation test (MTS assay), HUT102; assay type: cell-based
Method: as §1, §2
Abacavir was added to MT2 and HUT102 used in Example 1 at a concentration of 0 μM (DMSO was added instead of abacavir), 10 μM, 25 μM, 50 μM, 75 μM or 100 μM. The cells were seeded on a 96-well plate at a concentration of 1×10^4 cells/100 μL/well and cultured for 4 hours or 48 hours. […]

SMILES: Nc1nc(NC2CC2)c2ncn([C@H]3C=C[C@@H](CO)C3)c2n1 [abacavir, (−)-(1S,4R)-4-[2-amino-6-(cyclopropylamino)-9H-purin-9-yl]-2-cyclopentene-1-methanol]
- viral production (amount of virus in the medium) [1]: most strongly suppressed
- cell cycle (ratio of cells in G0G1/S/G2 phase) [2]: induced the S/G2 arrest
- cellular proliferation [3]: did not suppress cellular proliferation
- cellular proliferation relative to wild-type DT40 (Log2 Gene/WT) ([4]; DT40 mutant lacking BRCA1): showed a suppressive effect
- cellular proliferation relative to wild-type DT40 (Log2 Gene/WT) ([4]; DT40 mutant lacking GEN1): showed a suppressive effect
- cellular proliferation relative to wild-type DT40 (Log2 Gene/WT) ([4]; DT40 mutant lacking PCNA): showed a suppressive effect
- cellular proliferation relative to wild-type DT40 (Log2 Gene/WT) ([4]; DT40 mutant lacking TDP1): showed a suppressive effect
- cellular proliferation relative to wild-type DT40 (Log2 Gene/WT) ([4]; DT40 mutant lacking XRCC2): showed a suppressive effect
- cellular proliferation [5]: did not exhibit a suppressive effect
- anti-HTLV-1 effect [6]: anti-HTLV-1 effect
- cellular proliferation (ratio relative to solvent control on Day 0) ([7]; 100 μM, Day 0, 2, 4, compared among six NRTIs): most strongly suppressed
- cellular proliferation, dose dependence ([7]; 10, 25, 50, 75, 100 μM, 48 hours): suppressed cellular proliferation of both cell lines in a dose-dependent manner

Source: patent US20160000796A1, “PHARMACEUTICAL COMPOSITION FOR USE IN PREVENTION OR TREATMENT OF CANCER” (priority 2013, published 2016)
